Measurements: US20080145409A1, “COMPOSITION FOR THE TREATMENT AND PREVENTION OF PEPTIC ULCER” (priority 2006, published 2008)
Where a name gives a salt, the structure may show the parent alone.

Experiments:
[1] = test system: gastric injury induced by ethanol; test: Gastric ulcers induced by absolute ethanol in rats; format: in vivo, Sprague-Dawley derived male rats; conditions: for Average (gastric ulceration score 0-4): 30 min before absolute ethanol 1 ml/rat, scored 1 h later, 5 rats
From the text: The purpose of this study was to investigate the effect of MIC31 (Citronellol) and its analogues/derivatives on gastric injury induced by ethanol in the rat. Gastric damage was produced by oral administration of absolute ethanol to rats. The severity of the ethanol-induced gastric damage varied considerably within the vehicle-treated group of rats which served as the negative controls.
Animals studied in this example were Sprague-Dawley derived Male Rats from Yung-Min Medical University Laboratory Animal Center. The age of these rats are 7 weeks old. Each group has 5 rats, and their body weight at arrival was 180±10 gm. Upon arrival, heath status of rats will undergo a minimum of one week acclimation period prior to the start of the experiment. At the first day of study, body weights are measured and the animals are grouped according to experiment design. The environmental conditions are listed below:
(10 ml/kg) to a group of 5 Sprague-Dawley derived male rats overnight fasted weighing 180±10 gm at 30 minutes before absolute ethanol challenge (1 ml/rat, P.O.). One hour later, the animals are sacrificed and the stomachs are opened along the greater curvature. Gastric ulceration is scored for degree of hemorrhage and severity of ulcerative lesions as follows: 0=no hyperemia or lesion […], 1=hyperemia, 2=one or two slight lesions, 3=more than two slight lesions, 4=more than two lesions or severe lesions. Reduction of concurrent control score values by 50 percent or more (≧50%) is considered significant. During the experimental phase, body weight will be documented.

[2] = test system: Helicobacter pylori-induced ulcers; test: Helicobacter pylori-induced gastric ulceration in mice; format: in vivo, male CD-1 (Crl.) derived mice; conditions: for Ulceration Score Total: N=5 mice, day 8
Method: MIC-31 (Citronellol) and MIC-32 (Geraniol) were evaluated for their abilities to protect mice from the Helicobacter pylori-induced ulcers. MIC-31 was dosed at 50, 25, 12.5 and 6.25 mg/kg, P.O., as well as at 25 and 12.5 mg/kg, I.P. MIC-32 was dosed at 25 and 12.5 mg/kg, P.O. These dosing regimes were administered twice daily for 7 consecutive days beginning with the first dose given at one hour after Helicobacter pylori inoculation. On day 8, Gastric ulceration was scored as 0, 1, 2 or 3 (3 being most severe relative to vehicle control) according to the degree of hemorrhage and severity of lesions on the gastric mucosa. MIC-31 and MIC-32 were dissolved in 2% Tween 80 for oral (P.O.) and in 2% Tween 80/0.9% NaCl for intraperitoneal (I.P.) administration. MIC-31 at doses of 50, 25, 12.5, 6.25 mg/kg (P.O.) and 25, 12.5 mg/kg (I.P.), as well as MIC-32 at 25 and 12.5 mg/kg (P.O.), were administered to test animals twice daily for 7 consecutive days. The dosing volume was 10 ml/kg. Male CD-1 (Crl.) derived mice weighing 24±2 g were provided. Space allocation for 10 animals was 29×18×13 cm. Mice were housed in cages and maintained in a controlled temperature (22° C.-23° C.) and humidity (70%-80%) environment with 12 hours light dark cycles for at least one week prior to use. Free access to standard lab chow for mice and tap water was granted. Groups of 5 male CD-1 (Crl.) derived mice weighing 24±2 g, were fasted for 18 hours prior to intragastric inoculation of Helicobacter pylori in suspension at 9.5×10^9 CFU/0.4 ml/mouse. […] MIC-31 was also dosed intraperitoneally at 25 mg/kg and 12.5 mg/kg, starting also one hour after the Helicobacter pylori inoculation, twice daily for 7 consecutive days. Omeprazole 1 mg/kg and Clarithromycin 10 mg/kg, in combination, were used as positive controls and administered orally to test animals once daily for 7 consecutive days under the same treatment regime. Eight days after infection, all animals were fasted overnight and sacrificed. Each stomach was dissected along the greater curvature. Gastric ulceration was scored at four levels according to the degree of hemorrhage and severity of ulcerative lesions: 0=normal appearance, 1=mild red spots, 2=moderate red spots and/or hemorrhage spots, 3=marked hemorrhage spots. Reduction of ulceration score by 50 percent or more (≧50%) relative to vehicle control score values is considered significant. In addition, blood of each animal was collected from the retro-orbital sinus on day 8 and plasma sample was kept frozen at −80° C. until returned to the sponsor. Tissues of stomach and intestines were removed by surgical excision and immersed in 10% Neutral-Buffer formalin for histopathological examination.

[3] = Rattus norvegicus, po, 1 h, 30 mg/kg P.O., 30 min before absolute ethanol, >=50% considered significant, read-out: Reduction (%) of ulceration score vs concurrent vehicle control
[4] = Rattus norvegicus, po, 1 h, 100 mg/kg P.O., 30 min before absolute ethanol, >=50% considered significant, read-out: Reduction (%) of ulceration score vs concurrent vehicle control
[5] = Rattus norvegicus, po, 1 h, 300 mg/kg P.O., 30 min before absolute ethanol, >=50% considered significant, read-out: Reduction (%) of ulceration score vs concurrent vehicle control
[6] = 30 mg/kg P.O., 30 min before absolute ethanol, >=50% considered significant
[7] = 100 mg/kg P.O., 30 min before absolute ethanol, >=50% considered significant
[8] = PO 12.5 mg/kg x 2 x 7 days, score 0-3 each
[9] = PO 25 mg/kg x 2 x 7 days, score 0-3 each
[10] = 300 mg/kg P.O., 30 min before absolute ethanol, >=50% considered significant

| SMILES | Average (gastric ulceration score 0-4) ([1]; 30 mg/kg P.O.) | Average (gastric ulceration score 0-4) ([1]; 100 mg/kg P.O.) | Average (gastric ulceration score 0-4) ([1]; 300 mg/kg P.O.) | inhibition in vivo at 30 mg/kg [1, 3] | inhibition in vivo at 100 mg/kg [1, 4] | inhibition in vivo at 300 mg/kg [1, 5] | Reduction (%) of ulceration score vs concurrent vehicle control [1, 6] | Reduction (%) of ulceration score vs concurrent vehicle control [1, 7] | also measured |
| --- | --- | --- | --- | --- | --- | --- | --- | --- | --- |
| CC(C)=CCCC(C)CCOC=O (stereo not shown) [MIC-41, Citronellyl formate] | 3.2 | 1 | 1.4 | 0% | 69% | 56% | – | – | – |
| CC(C)=CCC[C@@H](C)CCBr [MIC-43, (R)-(−)-Citronellyl bromide] | 2.4 | 1.6 | 1.6 | 29% | 53% | 53% | – | – | – |
| CC(C)=CCCC(C)CCO (stereo not shown) [MIC-31, Citronellol] | 1 | 0.4 | – | – | – | – | 72% | 89% | Protecting effect on stomach after challenge with absolute ethanol (in words) ([1]; single oral dose 30 min before alcohol challenge, rats): can inhibit the severity degree of hemorrhage and ulcerative lesions in stomach; Ulceration Score Total ([2]; IP 12.5 mg/kg x 2 x 7 days): 2; Ulceration Score Total ([2]; IP 25 mg/kg x 2 x 7 days): 8; % Inhibition of ulceration score vs vehicle ([2]; IP 25 mg/kg x 2 x 7 days, >=50% significant): 47%; Ulceration Score Total ([2]; PO 6.25 mg/kg x 2 x 7 days, score 0-3 each): 11; % Inhibition of ulceration score vs vehicle ([2]; PO 6.25 mg/kg x 2 x 7 days, >=50% significant (in parentheses)): 27%; Ulceration Score Total [2, 8]: 7; Ulceration Score Total [2, 9]: 3; Ulceration Score Total ([2]; PO 50 mg/kg x 2 x 7 days, score 0-3 each): 2 |
| CC(=O)OCCC(C)CCC=C(C)C (stereo not shown) [MIC-39, Citronellyl acetate] | 2.4 | 0.8 | 0.8 | 20% | 73% | 73% | – | – | – |
| C/C=C(\C)C(=O)OCCC(C)CCC=C(C)C (stereo not shown) [MIC-44, Citronellyl tiglate] | 2.8 | 1.8 | 2.2 | 22% | 50% | 39% | – | – | – |
| CCC(=O)OCCC(C)CCC=C(C)C (stereo not shown) [MIC-40, Citronellyl propionate] | 3.4 | 2.8 | 1.2 | 6% | 22% | 67% | – | – | – |
| CC(C)=CCC[C@H](C)CCBr [MIC-36, (s)-(+)-Citronellyl bromide] | 2 | 1.4 | 1.6 | 33% | 53% | 47% | – | – | – |
| COc1ccc2[nH]c([S+]([O-])Cc3ncc(C)c(OC)c3C)nc2c1 (stereo not shown) [Omeprazole, reference compound] | – | – | – | – | – | – | – | – | Average (gastric ulceration score 0-4) ([1]; 50 mg/kg P.O.): 2.2; inhibition in vivo at 50 mg/kg ([1]; Rattus norvegicus, po, 1 h, 50 mg/kg P.O., 30 min before absolute ethanol, >=50% considered significant, read-out: Reduction (%) of ulceration score vs concurrent vehicle control): 39% |
| CC(C)=CCCC(C)CCO (stereo not drawn) [MIC-45, (−)-β-Citronellol] | 2.6 | 1.2 | 1.6 | – | – | – | 28% | 67% | Reduction (%) of ulceration score vs concurrent vehicle control [1, 10]: 83% |
| CC(C)=CCCC(C)CCOC(=O)C(C)C (stereo not shown) [MIC-38, Citronellyl isobutryrate] | 3.2 | 1.8 | 1.2 | – | – | – | 0% | 40% | Reduction (%) of ulceration score vs concurrent vehicle control [1, 10]: 60% |
| CC(C)=CCCC(C)CC(=O)O (stereo not shown) [MIC-35, Citronellic acid] | 2 | 1.6, | 1.4 | 38% | 50% | 56% | – | – | – |
| CC(C)=CCCC(C)CCO (stereo not shown) [MIC-42, Citronellol] | 1.6 | 0.8 | 1.6 | – | – | – | 53% | 76% | Reduction (%) of ulceration score vs concurrent vehicle control [1, 10]: 53% |
| CC(C)=CCC/C(C)=C/CO [MIC-32, Geraniol] | – | – | – | – | – | – | – | – | Ulceration Score Total [2, 8]: 13; % Inhibition of ulceration score vs vehicle ([2]; PO 12.5 mg/kg x 2 x 7 days, >=50% significant (in parentheses)): 13%; Ulceration Score Total [2, 9]: 11; % Inhibition of ulceration score vs vehicle ([2]; PO 25 mg/kg x 2 x 7 days, >=50% significant (in parentheses)): 27% |
